Measured values from patent US20040138285A1, “Chondrogenesis promoters” (priority 2001, published 2004).

Experiments:
[1] = system: rat articular chondrocytes; test: Cartilage matrix production promoting effect of compound A and U0126 (alcian blue staining, phase contrast morphology), Example 1; format: cell-based
Method: A 5-week-old male SD rat (Charles River Japan Corp.) was euthanized, and thereafter the femur was removed therefrom, and the articular cartilage layer was stripped off from the knee joint surface of the femur with a scalpel. The articular cartilage obtained was treated with 0.15% trypsin (DIFCO Lab.)/0.05% EDTA (KANTO KAGAKU CORP.) at 37° C. for one hour, and thereafter the matrix was decomposed while being agitated at 37° C. in 0.15% collagenase (WORTHINGTON Corp.) for three hours, thereby obtaining a cell suspension. […] 0.12% DMSO (Wako Pure Chemical Industries) was used as a solvent vehicle control. The medium was replaced every two to three days and the above agents were added every replacement.
After completion of the culture, the cell layer was fixed at room temperature in 4% paraformaldehyde solution (Wako Pure Chemical Industries) for two hours and then washed with distilled water and 5% acetic acid of pH 1.0, and thereafter the cartilage matrix was stained at room temperature with alcian blue of pH 1.0 (Wako Pure Chemical Industries) for two hours. The cell layer was washed with 5% acetic acid and distilled water and then dried, 6 mol/L guanidine hydrochloride (Nacalai Tesque, Inc.) was added to the cell layer to extract the dye therefrom, and the absorption was measured at 630 nm with a Microplate reader (BioRad).

[2] = system: rat articular chondrocytes; test: Cartilage matrix production promoting effect of compound A and PD98059 (alcian blue staining), Example 2; format: cell-based; settings: one week; for ratio of alcian blue positive cells (photomicrograph after alcian blue staining): compound A 2×10^−6 mol/L or PD98059 5×10^−5 mol/L alone, vs vehicle control (FIG. 7); for production of the cartilage matrix (alcian blue staining intensity, absorption at 595 nm): each agent alone (compound A 2×10^−6 mol/L; PD98059 5×10^−5 mol/L), vs vehicle control, p<0.05 (FIG. 8)
Method: A 5-week-old male SD rat (Charles River Japan Corp.) was euthanized, and thereafter the femur was removed therefrom, and the articular cartilage layer was stripped off from the knee joint surface of the femur with a scalpel. The articular cartilage obtained was treated with 0.15% trypsin (DIFCO Lab.)/0.05% EDTA (Nacalai Tesque, Inc.) at 37° C. for one hour, and thereafter the matrix was decomposed while being agitated at 37° C. in 0.15% collagenase (WORTHINGTON Corp.) for three hours, thereby obtaining a cell suspension. The cartilage cells obtained were seeded at the cell density of 20000 per well in a 24-well culturing plate (Falcon Corp.) coated with type I collagen (Nitta Gelatin Inc.) and were cultured in a Dulbecco's modified Eagle medium (Gibco) containing 10% fetal bovine serum (REHATUIN) and antibiotic-antimycotic (Gibco) (Calcif. Tissue Int. 19: 179-187, 1975). After achievement of the confluent state of cells, 50 μg/mL ascorbic acid (Wako Pure Chemical Industries) was added to the medium, and either or both of 2×10^−6 mol/L compound A and 2×10^−6 to 5×10^−5 mol/L compound with MEK1 inhibitory activity PD98059 (New England Biolab) were further added thereto, followed by culture for one week. 0.12% DMSO (JUNSEI CHEMICAL CO., LTD) was used as a solvent vehicle control. The medium was replaced every two to three days and the above agents were added every replacement.
After completion of the culture, the cell layer was fixed at room temperature in 4% paraformaldehyde solution (Wako Pure Chemical Industries) for two hours and then washed with distilled water and 5% acetic acid of pH 1.0, and thereafter the cartilage matrix was stained at room temperature with alcian blue of pH 1.0 (Wako Pure Chemical Industries) for two hours. The cell layer was washed with 5% acetic acid and distilled water and then dried, 6 mol/L guanidine hydrochloride (Nacalai Tesque, Inc.) was added to the cell layer to extract the dye therefrom, and absorption was measured at 595 nm with the Microplate reader (BioRad).

Row | SMILES | production of the matrix and morphology of chondrocytes (phase contrast photomicrograph) ([1]; compound A 2×10^−6 mol/L alone, cultured one week, vs vehicle control 0.12% DMSO (FIG. 2)) | production of the cartilage matrix (alcian blue staining intensity, absorption at 630 nm) ([1]; each agent alone (compound A 5×10^−7 to 2×10^−6 mol/L; U0126 1×10^−7 to 1×10^−5 mol/L), one week, vs vehicle control, p<0.05 (FIGS. 5 and 6)) | ratio of alcian blue positive cells (photomicrograph after alcian blue staining) [2] | production of the cartilage matrix (alcian blue staining intensity, absorption at 595 nm) [2]
1 | CCOC(CN1C(=O)[C@](CC(=O)Nc2ccc(C)cc2)(NC(=O)Nc2ccc(C)cc2)c2ccccc21)OCC [compound A] | production of the matrix was enhanced | significantly promoted the production of the cartilage matrix | the ratio of alcian blue positive cells increased | significantly promoted the production of the cartilage matrix
2 | COc1cccc(-c2cc(=O)c3ccccc3o2)c1N [PD98059, reference compound] | – | – | the ratio of alcian blue positive cells increased | significantly promoted the production of the cartilage matrix
